Measurements published in patent US9067897B2, “2,4-Diaminoquinazolines for spinal muscular atrophy” (Families of Spinal Muscular Atrophy, priority 2004, dated 2015).
Where a name gives a salt, the structure may show the parent alone.

Tested on: SMN2 promoter
Test: SMN2 promoter assay (β-lactamase reporter) in NSC-34 cells
Assay type: cell-based, mouse
Conditions: SMN2 promoter driving β-lactamase, 12 point dose curve, average of 3-6 dose curve experiments
Text: All compounds were screened using an in vitro based SMN2 promoter assay. We used NSC-34 cells, a hybrid cell line between mouse spinal cord cells and mouse neuroblastoma cells. NSC-34 cells harbor an expression plasmid containing a 3.4 kb promoter fragment of the SMN2 gene driving β-lactamase expression.
[…] […] CCF2-AM diffuses across the plasma membrane and is converted into an active β-lactamase substrate by cytoplasmic esterase. […] The fold induction is proportional to the extent of β-lactamase produced and in turn proportional to SMN2 promoter activation for a given compound relative to vehicle (DMSO) control. […] These values are used to rank activities of the compounds and derive structure activity relationship.

Row | EC50 (Mus musculus) [µM] | EC50 [µM] | Compound
1 | < 1 |  | Nc1nc(N)c2c(OCc3ccccc3I)cccc2n1 [Example 75, 5-(2-Iodo-benzyloxy)-quinazoline-2,4-diamine]
2 | < 1 |  | Nc1nc(N)c2c(OCc3c(F)cccc3F)cccc2n1 [Example 86, 5-(2,6-Difluorobenzyloxy)-quinazoline-2,4-diamine]
3 | < 1 |  | CC(Oc1cccc2nc(N)nc(N)c12)c1cc(F)cc(F)c1 (centres unmarked) [Example 107, 5-[1-(3,5-Difluorophenyl)ethoxy]quinazoline-2,4-diamine]
4 | < 1 |  | COC(COc1cccc2nc(N)nc(N)c12)c1ccc2c(c1)OCO2 (centres unmarked) [Example 169, 5-(2-Benzo[1,3]dioxol-5-yl-2-methoxyethoxy)quinazoline-2,4-diamine hydrochloride]
5 | 1 to 5 |  | Cc1ccc(Cc2cccc3nc(N)nc(N)c23)cc1 [Example 23, 5-(4-Methylbenzyl)quinazoline-2,4-diamine]
6 | < 1 |  | Nc1nc(N)c2c(Cc3ccc(Cl)cc3)cccc2n1 [Example 25, 5-(4-Chlorobenzyl)Quinazoline-2,4-Diamine]
7 | < 1 |  | Nc1nc(N)c2c(OCc3ccsc3)cccc2n1 [Example 47, 5-(Thiophen-3-ylmethoxy)quinazoline-2,4-diamine]
8 | < 1 |  | Nc1nc(N)c2c(OCC3CC4C=CC3C4)cccc2n1 (centres unmarked) [Example 122, 5-(Bicyclo[2.2.1]hept-5-en-2-ylmethoxy)-quinazoline-2,4-diamine]
9 | < 1 |  | Nc1nc(N)c2c(COc3ccccc3I)cccc2n1 [Example 159, 5-(2-Iodophenoxymethyl)quinazoline-2,4-diamine]
10 | < 1 |  | CCC(Oc1cccc2nc(N)nc(N)c12)c1ccc(Cl)cc1 (centres unmarked) [Example 50, 5-[1-(4-Chlorophenyl)propoxy]quinazoline-2,4-diamine]
11 | < 1 |  | Nc1nc(N)c2c(OC3CCc4ccc(F)cc43)cccc2n1 (centres unmarked) [Example 81, 5-(6-Fluoroindan-1-yloxy)-quinazoline-2,4-diamine]
12 | 5 to 10 |  | CC(=O)Nc1nc(NC(C)=O)c2c(OCc3ccc(Cl)cc3)cccc2n1 [Example 32, N-[2-Acetylamino-5-(4-chlorobenzyloxy)quinazolin-4-yl]acetamide]
13 | < 1 |  | C[C@@H](Oc1cccc2nc(N)nc(N)c12)c1ccccc1 [Example 56, 5-((R)-1-Phenylethoxy)quinazoline-2,4-diamine]
14 | 1 to 5 |  | Nc1nc(N)c2c(OC3(c4cccc(Cl)c4)CCCCC3)cccc2n1 [Example 145, 5-[1-(3-Chlorophenyl)cyclohexyloxy]quinazoline-2,4-diamine]
15 | < 1 |  | Nc1nc(N)c2c(OC3CCc4c(F)cccc43)cccc2n1 (centres unmarked) [Example 80, 5-(4-Fluoroindan-1-yloxy)-quinazoline-2,4-diamine]
16 | < 1 |  | Nc1nc(N)c2c(OC3CC4CCC3C4)cccc2n1 (centres unmarked) [Example 124, 5-(Bicyclo[2.2.1]hept-2-yloxy)-quinazoline-2,4-diamine]
17 | < 1 |  | Nc1nc(N)c2c(OCc3ccccc3Br)cccc2n1 [Example 74, 5-(2-Bromo-benzyloxy)-quinazoline-2,4-diamine]
18 | < 1 |  | Cc1cccc(COc2cccc3nc(N)nc(N)c23)c1 [Example 10, 5-(3-Methylbenzyloxy)quinazoline-2,4-diamine]
19 | < 1 |  | CC(Oc1cccc2nc(N)nc(N)c12)c1ccccc1Cl (centres unmarked) [Example 104, 5-[1-(2-Chlorophenyl)ethoxy]-quinazoline-2,4-diamine]
20 | < 1 |  | Nc1nc(N)c2c(OCCc3ccccc3)cccc2n1 [Example 37, 5-Phenethyloxyquinazoline-2,4-diamine]
21 | < 1 |  | CC(Oc1cccc2nc(N)nc(N)c12)c1cccc(Cl)c1 (centres unmarked) [Example 28, 5-[1-(3-Chlorophenyl)ethoxy]quinazoline-2,4-diamine]
22 | 1 to 5 |  | CC(C)(Oc1cccc2nc(N)nc(N)c12)c1cccc(Cl)c1 [Example 140, 5-[1-(3-Chlorophenyl)-1-methylethoxy]quinazoline-2,4-diamine]
23 | < 1 |  | Cc1ccc(C#Cc2cccc3nc(N)nc(N)c23)cc1 [Example 30, 5-p-Tolylethynylquinazoline-2,4-diamine]
24 | < 1 |  | Nc1nc(N)c2c(OCc3cccc(Br)c3)cccc2n1 [Example 76, 5-(3-Bromobenzyloxy)quinazoline-2,4-diamine]
25 | < 1 |  | COCC(Oc1cccc2nc(N)nc(N)c12)c1ccc(Cl)cc1 (centres unmarked) [Example 114, 5-[1-(4-Chlorophenyl)-2-methoxyethoxy]-quinazoline-2,4-diamine]
26 | < 1 |  | CN1CCCC(COc2cccc3nc(N)nc(N)c23)C1 (centres unmarked) [Example 20, 5-(1-Methylpiperidin-3-ylmethoxy)quinazoline-2,4-diamine]

Row | EC50 (Mus musculus) [µM] | EC50 [µM] | Compound
27 | < 1 |  | CC(Oc1cccc2nc(N)nc(N)c12)c1ccncc1 (centres unmarked) [Example 48, 5-(1-Pyridin-4-ylethoxy)quinazoline-2,4-diamine]
28 | < 1 |  | CC(Oc1cccc2nc(N)nc(N)c12)c1ccccn1 (centres unmarked) [Example 57, 5-(1-Pyridin-2-ylethoxy)quinazoline-2,4-diamine]
29 | < 1 |  | Nc1nc(N)c2c(OCC(CO)c3ccc(Cl)cc3)cccc2n1 (centres unmarked) [Example 69, 2-(4-Chlorophenyl)-3-(2,4-diaminoquinazolin-5-yloxy)-propan-1-ol hydrochloride]
30 |  | < 1 | 5-[1-(4-fluorophenyl)-1-methyl-ethoxy]-quinazoline-2,4-diamine [Example 101]
31 | 10 to 20 |  | CC(Oc1cccc2nc(N)nc(N)c12)c1ccccc1C(F)(F)F (centres unmarked) [Example 94, 5-[1-(2-Trifluoromethylphenyl)-ethoxy]-quinazoline-2,4-diamine]
32 | < 1 |  | Nc1nc(N)c2c(OCCCc3ccc(Cl)cc3)cccc2n1 [Example 27, 5-[3-(4-Chlorophenyl)propoxy]quinazoline-2,4-diamine]
33 | < 1 |  | CC(Oc1cccc2nc(N)nc(N)c12)c1nccs1 (centres unmarked) [Example 58, 5-(1-Thiazol-2-ylethoxy)quinazoline-2,4-diamine]
34 | < 1 |  | CC(Oc1cccc2nc(N)nc(N)c12)c1c(F)cccc1F (centres unmarked) [Example 82, 5-[1-(2,6-Difluorophenyl)-ethoxy]-quinazoline-2,4-diamine]
35 | < 1 |  | COCOC(COc1cccc2nc(N)nc(N)c12)c1ccc2c(c1)OCO2 (centres unmarked) [Example 155, 5-(2-Benzo[1,3]dioxol-5-yl-2-methoxymethoxyethoxy)quinazoline-2,4-diamine]
36 | < 1 |  | COCC(Oc1cccc2nc(N)nc(N)c12)c1ccccc1 (centres unmarked) [Example 166, 5-(2-Methoxy-1-phenylethoxy)quinazoline-2,4-diamine]
37 | < 1 |  | C[C@@H](Oc1cccc2nc(N)nc(N)c12)c1cccc(Cl)c1 [Example 92, 5-[(R)-1-(3-Chlorophenyl)ethoxyl]quinazolin-2,4-diamine]
38 | 1 to 5 |  | C[C@H](Oc1cccc2nc(N)nc(N)c12)c1cccc2ccccc12 [Example 108, 5-((S)-1-Naphthalen-1-yl-ethoxy)-quinazoline-2,4-diamine]
39 | < 1 |  | Nc1nc(N)c2c(OCc3cc(Cl)c(Cl)cc3CO)cccc2n1 [Example 70, [4,5-Dichloro-2-(2,4-diaminoquinazolin-5-yloxymethyl)phenyl]methanol hydrochloride]
40 | < 1 |  | COCOCC(COc1cccc2nc(N)nc(N)c12)c1ccc(Cl)cc1 (centres unmarked) [Example 68, 5-[2-(4-Chlorophenyl)-3-methoxymethoxypropoxy]-quinazoline-2,4-diamine]
41 | < 1 |  | Nc1nc(N)c2c(OC(CO)c3ccc4c(c3)OCO4)cccc2n1 (centres unmarked) [Example 170, 2-Benzo[1,3]dioxol-5-yl-2-(2,4-diaminoquinazolin-5-yloxy)ethanol hydrochloride]
42 | 5 to 10 |  | Nc1nc(N)c2c(O[C@H]3CCc4ccccc43)cccc2n1 [Example 41, 5-((S)-Indan-1-yloxy)quinazoline-2,4-diamine]
43 | < 1 |  | Nc1nc(N)c2c(OC(c3ccccc3)c3ccccc3)cccc2n1 [Example 52, 5-Benzhydryloxyquinazoline-2,4-diamine]
44 | 1 to 5 |  | Nc1nc(N)c2c(OCC(F)(F)F)cccc2n1 [Example 3, 5-(2,2,2-Trifluoroethoxy)quinazoline-2,4-diamine]
45 | < 1 |  | Nc1nc(N)c2c(OCC3CCCCO3)cccc2n1 (centres unmarked) [Example 55, 5-(Tetrahydropyran-2-ylmethoxy)quinazoline-2,4-diamine]
46 | < 1 |  | Cc1ccc(CCOc2cccc3nc(N)nc(N)c23)cc1 [Example 8, 5-(2-p-Tolylethoxy)quinazoline-2,4-diamine]
47 | < 1 |  | Nc1nc(N)c2c(OCc3cc(F)cc(F)c3F)cccc2n1 [Example 83, 5-(2,3,5-Trifluorobenzyloxy)-quinazoline-2,4-diamine]
48 |  | < 1 | Nc1nc(N)c2c(OCC3CCN(C(=O)c4ccc(I)cc4)CC3)cccc2n1 [Example 136, [4-(2,4-Diaminoquinzolin-5-yloxymethyl)piperidin-1-yl]-(4-iodophenyl)methanone]
49 | < 1 |  | Nc1nc(N)c2c(OCc3ccccc3Cl)cccc2n1 [Example 6, 5-(2-Chlorobenzyloxy)quinazoline-2,4-diamine]
50 | < 1 |  | Nc1nc(N)c2c(COc3ccc(Cl)cc3)cccc2n1 [Example 43, 5-(4-Chlorophenoxymethyl)quinazoline-2,4-diamine]
51 | < 1 |  | Nc1nc(N)c2c(OCc3cc(F)cc(F)c3)cccc2n1 [Example 79, 5-(3,5-Difluorobenzyloxy)quinazoline-2,4-diamine]
52 | < 1 |  | Nc1nc(N)c2c(OCC3CC4CC3C(O)C4O)cccc2n1 (centres unmarked) [Example 131, 5-(2,4-Diamino-quinazolin-5-yloxymethyl)-bicyclo[2.2.1]heptane-2,3-diol]

Row | Compound | EC50 (Mus musculus) [µM] | EC50 [µM]
53 | Nc1nc(N)c2c(COc3ccc(F)cc3F)cccc2n1 [Example 147, 5-(2,4-Difluorophenoxymethyl)quinazoline-2,4-diamine] | < 1 | 
